Several values for one entry are separate records, joined by “and”; a condition that tells them apart may be missing. Equal entries are not always repeated. Inconclusive results and toxic doses are left out.
System: P388 leukemia ip, CD2F1 mice, survival T/C
Assay: NCI In Vivo Anticancer Drug Screen. Data for tumor model P388 Leukemia (intraperitoneal) in CD2F1 (CDF1) mice
Conditions: endpoint: median survival time, higher = longer survival
How it was run: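 Mice carrying the transplanted tumor received test compound or vehicle. Survival was recorded in each group, and the value is the treated-group measurement divided by that of the vehicle-treated control group.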

[1] = dose: 50.0 mg/kg/injection, schedule: Q01DX009 (ip), vehicle: saline with Tween-80
[2] = dose: 200.0 mg/kg/injection, schedule: Q01DX009 (ip), vehicle: saline with Tween-80

`C1=C(B2OCCNO2)CCCC1` was tested, and the T/C (dose: 100.0 mg/kg/injection, schedule: Q01DX001 (ip), vehicle: saline) was 101 % of control, the T/C (dose: 200.0 mg/kg/injection, schedule: Q01DX001 (ip), vehicle: saline) was 96 % of control and the T/C (dose: 400.0 mg/kg/injection, schedule: Q01DX001 (ip), vehicle: saline) was 104 % of control.
`CCCCCCCN(CCCCCCC)CC(O)c1c(OC)c2cc(Cl)ccc2c2ccc(Cl)cc12` (configuration not stated) was tested, and the T/C (dose: 10.0 mg/kg/injection, schedule: Q01DX009 (ip), vehicle: saline with Tween-80) was 94 % of control, the T/C (dose: 20.0 mg/kg/injection, schedule: Q01DX009 (ip), vehicle: saline with Tween-80) was 90 % of control and the T/C (dose: 40.0 mg/kg/injection, schedule: Q01DX009 (ip), vehicle: saline with Tween-80) was 92 % of control.
For `O=S(=O)(c1ccccc1)N1CN2CCN(C2)C1`, the T/C [1] was 123 % of control and the T/C [2] was 150 % of control.
For `O=C(Nc1cccc(Cl)c1)Nc1ccc(Sc2ccc(Cl)cc2)o1`, the T/C (dose: 50.0 mg/kg/injection, schedule: Q01DX005 (ip), vehicle: saline with Tween-80) was 97 % of control, the T/C (dose: 100.0 mg/kg/injection, schedule: Q01DX005 (ip), vehicle: saline with Tween-80) was 88 % of control and the T/C (dose: 200.0 mg/kg/injection, schedule: Q01DX005 (ip), vehicle: saline with Tween-80) was 92 % of control.
For `COC(=O)NC1C(C)OC(OC2C/C=C(/C)C3C=CC4C(OC5CC(OC6CCC(OC7CC(O)C(OC8CCC(O)C(C)O8)C(C)O7)C(C)O6)C(OC(C)=O)C(C)O5)C(C)CC(C)C4C3(C)/C(O)=C3/C(=O)OC4(CC(C=O)=CC(O)C4/C=C\2C)C3=O)CC1(C)[N+](=O)[O-]` (configuration not stated), the T/C (dose: 2.25 mg/kg/injection, schedule: Q01DX005 (iv), vehicle: water) was 97 % of control, the T/C (dose: 2.5 mg/kg/injection, schedule: Q01DX005 (ip), vehicle: water) was 106 % of control and 120 % of control and the T/C (dose: 3.06 mg/kg/injection, schedule: Q01DX005 (ip), vehicle: water) was 121 % of control. The T/C (dose: 3.35 mg/kg/injection, schedule: Q01DX005 (iv), vehicle: water) was 96 % of control, the T/C (dose: 4.49 mg/kg/injection, schedule: Q01DX005 (ip), vehicle: water) was 121 % of control and the T/C (dose: 5.0 mg/kg/injection, schedule: Q01DX005 (ip), vehicle: water) was 121 % of control. The T/C (dose: 5.0 mg/kg/injection, schedule: Q01DX005 (iv), vehicle: water) was 95 % of control, the T/C (dose: 6.7 mg/kg/injection, schedule: Q01DX005 (ip), vehicle: water) was 118 % of control and the T/C (dose: 7.47 mg/kg/injection, schedule: Q01DX005 (iv), vehicle: water) was 97 % of control. The T/C (dose: 10.0 mg/kg/injection, schedule: Q01DX005 (ip), vehicle: water) was 121 % of control and 123 % of control and 124 % of control and the T/C (dose: 11.14 mg/kg/injection, schedule: Q01DX005 (iv), vehicle: water) was 96 % of control.
With `CCOc1c(N=Nc2ccccc2Cl)c(C)nn1C(=S)SC` the T/C (dose: 60.0 mg/kg/injection, schedule: Q01DX005 (ip), vehicle: Klucel + Tween-80) was 103 % of control, the T/C (dose: 120.0 mg/kg/injection, schedule: Q01DX005 (ip), vehicle: Klucel + Tween-80) was 112 % of control and the T/C (dose: 240.0 mg/kg/injection, schedule: Q01DX005 (ip), vehicle: Klucel + Tween-80) was 103 % of control.
In the case of `CCCC1CN2CCc3cc(OC)c(OC)cc3C2C/C1=C/C(=O)OCC` (configuration not stated), the T/C (dose: 12.5 mg/kg/injection, schedule: Q01DX009 (ip), vehicle: saline) is reported as 90 % of control, the T/C (dose: 25.0 mg/kg/injection, schedule: Q01DX009 (ip), vehicle: saline) is reported as 92 % of control and the T/C [1] is reported as 90 % of control. The T/C (dose: 50.0 mg/kg/injection, schedule: Q01DX009 (ip), vehicle: saline) was 96 % of control and the T/C [2] was 89 % of control.
`CN1C2CCC1C(Br)C=C2c1ccccc1` (configuration not stated) was tested, and the T/C (dose: 50.0 mg/kg/injection, schedule: Q01DX005 (ip), vehicle: saline) was 109 % of control.
With `c1c2c(cc3c1OCN(C1CC1)C3)OCN(C1CC1)C2` the T/C [1] was 94 % of control, the T/C (dose: 100.0 mg/kg/injection, schedule: Q01DX009 (ip), vehicle: saline with Tween-80) was 90 % of control and the T/C [2] was 96 % of control.
For `CC(=O)Nc1cc(Cl)c2ncn(C3OC(CO)C(O)C3O)c2n1` (configuration not stated), the T/C (dose: 25.0 mg/kg/injection, schedule: Q04DX003 (ip), vehicle: water) was 111 % of control, the T/C (dose: 50.0 mg/kg/injection, schedule: Q04DX003 (ip), vehicle: water) was 112 % of control and the T/C (dose: 100.0 mg/kg/injection, schedule: Q04DX003 (ip), vehicle: water) was 109 % of control. For the same compound, the T/C (dose: 200.0 mg/kg/injection, schedule: Q04DX003 (ip), vehicle: water) was 100 % of control and the T/C (dose: 400.0 mg/kg/injection, schedule: Q04DX003 (ip), vehicle: water) was 100 % of control.
In the case of `COC(=O)/C=C(\C(=O)OC)C(C(C)=O)C(C)=NCCN=C(C)C(C(C)=O)/C(=C/C(=O)OC)C(=O)OC.[Cu]` (configuration not stated), the T/C (dose: 25.0 mg/kg/injection, schedule: Q04DX003 (ip), vehicle: Klucel (hydroxypropylcellulose) (HPC)) is reported as 98 % of control, the T/C (dose: 50.0 mg/kg/injection, schedule: Q04DX003 (ip), vehicle: Klucel (hydroxypropylcellulose) (HPC)) is reported as 103 % of control and the T/C (dose: 100.0 mg/kg/injection, schedule: Q04DX003 (ip), vehicle: Klucel (hydroxypropylcellulose) (HPC)) is reported as 107 % of control and 117 % of control.
